According to PMC11698746 (Scientific Reports, 2025):
Like-named read-outs stand apart in the source and are kept apart here.

How the values were obtained:
[1] = Transport of flavonoids in HLF across Caco-2 cell monolayer; type: in vitro ADME; conditions: human, Caco-2, Papp, Caco-2, range over HLF 50, 100 and 200 µg·mL^−1
[2] = In situ recirculating intestinal perfusion; type: in vivo; conditions: rat, other: in situ recirculating intestinal perfusion, absorption potential (Papp), rat small intestine, different concentrations of HLF
[3] = test system: rat intestine; type: in vivo; conditions: for detection in the effluent fluid: rat single-pass intestinal perfusion after HLF via jugular vein
[4] = test system: intestinal microflora; assay: Metabolism of HLF by intestinal microflora; type: in vitro ADME, rat; conditions: anaerobic incubation 37 °C, up to 48 h
[5] = Pharmacokinetics of HLF via oral administration; type: in vivo, rat; conditions: after intragastric administration of HLF
[6] = cited from earlier work
[7] = test system: rat small intestine; assay: In situ recirculating intestinal perfusion; type: in vivo; conditions: different concentrations of HLF

SMILES	Papp [1] [×10⁻⁶ cm/s]	Papp at 3 h [2] [×10⁻⁶ cm/s]	detection in the effluent fluid [3]	metabolism by the intestinal microflora [4]	detection in the rat plasma and bile [5]	Papp ([6]; other study)	reduction of cumulative efflux amount ([3]; in the presence of VP vs absence) [%]	absorption extent (A) [7] [%·h^−1]	absorption potential (Papp) [7]	Papp ([6]; previous study)
C[C@@H]1O[C@@H](OC[C@H]2O[C@@H](Oc3c(-c4ccc(O)c(O)c4)oc4cc(O)cc(O)c4c3=O)[C@H](O)[C@@H](O)[C@@H]2O)[C@H](O)[C@H](O)[C@H]1O [RUT, rutin]	0.228 to 0.304	0.031 to 0.141	hardly detected	metabolized to QUE	cannot be detected	1.03 ± 0.13 ×10^−5 cm·sec^−1				
O=c1cc(-c2ccc(O)cc2)oc2c([C@@H]3O[C@H](CO)[C@@H](O)[C@H](O)[C@H]3O)c(O)cc(O)c12 [VIT, vitexin]	0.218 to 0.383	0.031 to 0.141	detected		cannot be detected		47.63			
O=c1c(O[C@@H]2O[C@H](CO)[C@H](O)[C@H](O)[C@H]2O)c(-c2ccc(O)c(O)c2)oc2cc(O)cc(O)c12 [HP, hyperoside]	0.226 to 0.383	0.255 to 0.427	hardly detected	metabolized to QUE	cannot be detected			11.40 ± 0.98	4.27 ± 0.36 ×10^−7 cm·sec^−1	1.87 ± 1.11 ×10^−7 cm·sec^−1
